# Results: patent publication US20060008574A1, “Galactosyl isomalt, method for production and use thereof” (priority 2002, published 2006)
# Test system: pancreatin enzyme (Sigma)
# Assay: Stability with respect to pancreatic enzymes
# Assay type: in vitro ADME
# Details: 1% solution, 0.2% pancreatin, pH 7.0, 210 min at 37° C.
# Procedure: The pancreatic secretion contains a large number of hydrolases, including carbohydrate-degrading enzymes like α-amylase, which breaks down α-1,4-glucans (starch, glycogen) preferably to maltose and maltooligosaccharides. The test of the stability of saccharides with respect to pancreatic enzymes is carried out as follows.
# 3.0 mL of a carbohydrate solution (solution 2 to solution 6) is mixed with 0.1 mL of the enzyme solution (solution 7) per batch:
# Solution 1: 20 mmol/L Na phosphate buffer, pH 7.0, with 6 mmol/L NaCl
# Solution 2: 1% solution of β-1,4-galactosyl isomalt mixture in accordance with the invention, prepared according to Example 2 and Example 4, in solution 1
# Solution 3: 1% solution of β-1,3-galactosyl isomalt mixture in accordance with the invention, prepared according to Example 1 and Example 4, in solution 1
# Solution 4: 1% solution of β-1,6-galactosyl isomalt mixture in accordance with the invention; prepared according to Example 3 and Example 4, in solution 1
# Solution 6: 1% starch solution (soluble starch, according to Zulkowski), in solution 1
# Solution 7: 0.2% pancreatin enzyme (Sigma), dissolved in solution 1
# After 210 min incubation in a thermomixer (interval shaking) at 37° C., the reaction is stopped by heating to 95° C. for 15 min and the samples are analyzed by HPAEC. The starch-containing sample (solution6+solution 7) is completely hydrolyzed before the HPAEC analysis by heating for 3 h in 1 mol/L hydrochloric acid at 95° C., and the glucose resulting from this is determined in order to calculate the starch content of the sample.
smiles,measurement,value
"OCC1O[C@H](OC[C@@H](O)[C@@H](O)[C@H](O)C(O)CO)C(O)C(O[C@@H]2OC(CO)[C@H](O)C(O)C2O)[C@@H]1O (mixture of isomers) [β-1,3-Galactosyl isomalt, β-D-galactosyl-(1→3)-α-D-glucosyl-(1→6)-D-sorbitol(β-1,3-galactosyl-1,6-GPS) and β-D-galactosyl-(1→3)-α-D-glucosyl-(1→1)-D-mannitol(β-1,3-galactosyl-1,1-GPM)]",Decomposition rate [%],<1%
